The source of these data is patent publication EP1803452A1, “ESTER DERIVATIVE AND PHARMACEUTICAL USE THEREOF” (Japan Tobacco, Inc., priority 2004, dated 2006).

The nature of series [1]: Metabolic stability test in liver S9. It is filed as in vitro ADME. The following applies: pH 7.4, human liver S9 2 mg protein/mL, LC/MS; for remaining at 10 min: unchanged form after 10 minutes at 37°C, read-out: Remaining rate in human liver S9 (%/10min); for remaining at 1 h: unchanged form after 60 minutes at 37°C, read-out: Remaining rate in human liver S9 (%/60min). In outline:
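Compound from DMSO solution was incubated at 37°C with human liver S9 (final 2 mg protein/mL) in 100 mM potassium phosphate pH 7.4 with an NADPH-regenerating system for 0, 10 and 60 minutes. Reactions were stopped with acetonitrile/0.1% formic acid. Unchanged compound was measured by LC/MS as remaining rate (%) relative to zero time.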

Series [2] is described as follows: Stability test in buffer (pH 7.4). It is filed as physicochemical. The following applies: phosphate buffer/acetonitrile 7:3, 100 mM potassium phosphate buffer (pH 7.4) and acetonitrile 7:3 (v/v), LC/MS; for remaining at 10 min: 10 minutes at 37°C, read-out: Buf. remaining rate (%/10min); for remaining at 1 h: 60 minutes at 37°C, read-out: Buf. remaining rate (%/60min). The method in brief:
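Parent compound measured by LC/MS after 0, 10 or 60 min at 37°C in a 7:3 (v/v) mix of 100 mM potassium phosphate buffer and acetonitrile, with the reaction stopped by acetonitrile plus formic acid (final 0.1%). Percentage remaining is expressed relative to the zero-time amount.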

Series [3] in a line: Metabolic stability test in plasma. It is filed as in vitro ADME, human. The following applies: LC/MS; for remaining at 10 min: unchanged form after 10 minutes at 37°C in human plasma, read-out: Remaining rate in human plasma (%/10min); for remaining at 1 h: unchanged form after 60 minutes at 37°C in human plasma, read-out: Remaining rate in human plasma (%/60min). The method in brief:
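Remaining rate (%) versus zero time was derived from LC/MS measurement of parent compound after centrifugation. Plasma from human, mouse and hamster received DMSO-dissolved compound and was held at 37°C for 0, 10 or 60 minutes before acetonitrile containing formic acid (final 0.1%) stopped the reaction.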

Regarding `COC(=O)c1ccc(OC(=O)CCCc2ccc(NC(=O)c3ccccc3-c3ccc(C(F)(F)F)cc3)c(C(=O)N(C)C)c2)c(OC)c1` [Compound 1-12, 4-(4-{3-dimethylcarbamoyl-4-[(4'-trifluoromethylbiphenyl-2-carbonyl)amino]phenyl}butyryloxy)-3-methoxybenzoic acid methyl ester], the remaining at 10 min in series [1] is 0%; in series [2], 100%; in series [3] it was 10%. Besides, the remaining at 1 h in series [1] was found to be 0%; in series [2] it was 103%; in series [3], 0%.

Regarding `COC(=O)c1cc(C(=O)OC(C)C)ccc1OC(=O)CCCc1ccc(NC(=O)c2ccc(C)nc2-c2ccc(C(F)(F)F)cc2)c(C(=O)N(C)C)c1` [Compound 1-72, 4-[4-(3-dimethylcarbamoyl-4-{[6-methyl-2-(4-trifluoromethylphenyl)pyridine-3-carbonyl]amino}phenyl)butyryloxy]isophthalic acid 1-isopropyl ester 3-methyl ester], the remaining at 10 min in series [1] amounted to 4%; in series [2], 113%; in series [3] it was 0%. The remaining at 1 h in series [1] stood at 0%; in series [2], 112%; in series [3], 0%.

For the compound `COC(=O)c1ccc(OC(=O)CCCc2ccc(NC(=O)c3ccccc3-c3ccc(C(F)(F)F)cc3)c(C(=O)N(C)C)c2)c(Cl)c1` [Compound 1-11, 3-chloro-4-(4-{3-dimethylcarbamoyl-4-[(4'-trifluoromethylbiphenyl-2-carbonyl)amino]phenyl}butyryloxy)benzoic acid methyl ester], the remaining at 10 min in series [1] is 0%; in series [2], 99%; in series [3] it was 0%. For the same compound, the remaining at 1 h in series [1] is 0%; in series [2] it was 99%; in series [3], 0%.

For `CN(C)C(=O)c1cc(CCCC(=O)Oc2ccc(C(=O)OCc3cccs3)cc2)ccc1NC(=O)c1ccccc1-c1ccc(C(F)(F)F)cc1` [Compound 1-98, 4-[4-(3-dimethylcarbamoyl-4-{(4'-trifluoromethylbiphenyl-2-carbonyl)amino}phenyl)butyryloxy]benzoic acid thiophen-2-ylmethyl ester], the figures for the remaining at 10 min in series [1], in series [2] and in series [3] were 6%, 101% and 5%, respectively. The values for the remaining at 1 h in series [1], in series [2] and in series [3] were 0%, 99% and 0%, respectively.

For the compound `CN(C)C(=O)c1cc(CCCC(=O)Oc2ccc(-c3nnn(CC(=O)OCc4ccccc4)n3)cc2)ccc1NC(=O)c1ccccc1-c1ccc(C(F)(F)F)cc1` [Compound 1-104, 4-(3-dimethylcarbamoyl-4-{(4'-trifluoromethylbiphenyl-2-carbonyl)amino}phenyl)butyric acid 4-(2-benzyloxycarbonylmethyl-2H-tetrazol-5-yl)phenyl ester], the values for the remaining at 10 min in series [1], in series [2] and in series [3] were 14%, 101% and 78%, respectively. Further, the remaining at 1 h in series [1] stood at 5%; in series [2] it was 96%; in series [3] it was 17%.

On to `CN(C)C(=O)c1cc(CCCC(=O)Oc2ccc(C(=O)OCc3cccnc3)cc2)ccc1NC(=O)c1ccccc1-c1ccc(C(F)(F)F)cc1` [Compound 1-83, 4-[4-(3-dimethylcarbamoyl-4-((4'-trifluoromethylbiphenyl-2-carbonyl)amino}phenyl)butyryloxy]benzoic acid pyridin-3-ylmethyl ester], for which the results for the remaining at 10 min in series [1], in series [2] and in series [3] were 0%, 99% and 39%, respectively. The remaining at 1 h in series [1] worked out at 0%; in series [2] it was 99%; in series [3], 0%.
